Data taken from patent EP1931657B1, “NOVEL HIGH AFFINITY QUINOLINE-BASED KINASE LIGANDS” (Merck Sharp & Dohme Corp., priority 2005, dated 2007).

Target: CDK-2 (Homo sapiens, UniProt P24941)
Test: CDK-2 inhibition, fluorescence polarization displacement assay
Procedure: Binding assays were performed in a 384 well Costar NBS coated plate. […] The concentration of BMS-Alexa Fluor647 was 50 nM. Serial dilutions of compounds were added to 12 wells. The final buffer concentration was 10 mM Hepes, pH 7.5, 150 mM NaCl, and 1 mM DTT. Samples were incubated at room temperature for 15 minutes and then read in an Analyst HT instrument using an excitation and emission wavelength of 580 and 680 nm, respectively.

| IC50 [µM] | Structure (SMILES) |
| --- | --- |
| 1 to 40 | N#CC[C@H](Cc1ccc(O)cc1)NC(=O)c1cc(C(=O)O)c2cc(CCc3ccccc3)ccc2n1 [Compound 116] |
| > 40 | NC[C@H](Cc1ccc(O)cc1)NC(=O)c1cc(C(=O)O)c2cc(CCc3ccccc3)ccc2n1 [Compound 181] |
| 1 to 40 | O=C(N[C@@H](Cc1ccc(O)cc1)c1cnco1)c1cc(C(=O)O)c2cc(-c3cccc(C(F)(F)F)c3)ccc2n1 [Compound 99] |
| < 1 | COC(=O)[C@H](Cc1ccc(O)cc1)NC(=O)c1cc(C(=O)O)c2cc(-c3cccc(C#N)c3)ccc2n1 [Compound 36] |
| 1 to 40 | COC[C@H](Cc1ccc(O)cc1)NC(=O)c1cc(C(=O)O)c2cc(C#CCCC#N)ccc2n1 [Compound 152] |
| < 1 | COC(=O)[C@H](Cc1ccc(O)cc1)NC(=O)c1cc(C(=O)O)c2cc(-c3cc4ccccc4s3)ccc2n1 [Compound 58] |
| 1 to 40 | COC(=O)[C@H](Cc1ccc(O)cc1)NC(=O)c1cc(C(=O)O)c2cc(-c3ccc(N)cc3)ccc2n1 [Compound 145] |
| < 1 | COC(=O)[C@H](Cc1ccc(O)cc1)NC(=O)c1cc(C(=O)O)c2cc(CCc3ccc(C(F)(F)F)cc3)ccc2n1 [Compound 8] |
| < 1 | COC(=O)[C@H](Cc1ccc(O)cc1)NC(=O)c1cc(C(=O)O)c2cc(-c3ccc(Cl)c(Cl)c3)ccc2n1 [Compound 69] |
| > 40 | COC(=O)[C@H](Cc1ccc(O)cc1)NC(=O)c1cc(C(=O)O)c2cc(-c3ccc(S(C)(=O)=O)cc3)ccc2n1 [Compound 157] |
| 1 to 40 | COC(=O)[C@H](Cc1ccc(O)cc1)NC(=O)c1cc(C(=O)O)c2cc(-c3ccc(Cl)c(F)c3)ccc2n1 [Compound 92] |
| < 1 | COC(=O)[C@H](Cc1ccc(O)cc1)NC(=O)c1cc(C(=O)O)c2cc(-c3ccc(Oc4ccccc4)cc3)ccc2n1 [Compound 51] |
| 1 to 40 | COC[C@H](Cc1ccc(O)cc1)NC(=O)c1cc(C(=O)O)c2cc(-c3cccc(COc4cccnc4)c3)ccc2n1 [Compound 141] |
| 1 to 40 | COC[C@H](Cc1ccc(O)cc1)NC(=O)c1cc(C(=O)O)c2cc(COc3ccc(C(F)(F)F)cc3)ccc2n1 [Compound 129] |
| > 40 | COC[C@H](Cc1ccc(O)cc1)NC(=O)c1cc(C(=O)OCC(O)CO)c2cc(/C=C/c3ccc(Cl)cc3)ccc2n1 (stereo partly shown) [Compound 215] |
| < 1 | COC(=O)[C@H](Cc1ccc(O)cc1)NC(=O)c1cc(C(=O)O)c2cc(-c3ccc(OC)cc3)ccc2n1 [Compound 76] |
| > 40 | COC[C@H](Cc1ccc(O)cc1)NC(=O)c1cc(C(=O)O)c2cc(-c3cccc(CNC(CO)CO)c3)ccc2n1 [Compound 197] |
| 1 to 40 | COC[C@H](Cc1ccc(O)cc1)NC(=O)c1cc(C(=O)O)c2cc(COc3ccc(Cl)c(F)c3)ccc2n1 [Compound 146] |
| < 1 | COC(=O)[C@H](Cc1ccc(O)cc1)NC(=O)c1cc(C(=O)O)c2cc(-c3ccc(C(C)C)cc3)ccc2n1 [Compound 72] |
| > 40 | COC(=O)C(Cc1ccc(O)cc1)NC(=O)c1cc(C(=O)NC(C)C)c2cc(-c3cccs3)ccc2n1 (stereo not shown) [Compound 235] |
| > 40 | COC[C@H](Cc1ccc(O)cc1)NC(=O)c1cc(C(=O)O)c2cc(C#CCCCN3CCN(C)CC3)ccc2n1 [Compound 220] |
| > 40 | CC(C)(C)S(=O)(=O)Nc1cc(C(=O)N[C@H](CN)Cc2ccc(O)cc2)nc2ccc(C#Cc3ccccn3)cc12 [Compound 225] |

| IC50 [µM] | Structure (SMILES) |
| --- | --- |
| < 1 | COC(=O)[C@H](Cc1ccc(O)cc1)NC(=O)c1cc(C(=O)O)c2cc(-c3cc(C)cc(C)c3)ccc2n1 [Compound 67] |
| > 40 | COC[C@H](Cc1ccc(O)cc1)NC(=O)c1cc(C(=O)O)c2cc(-c3cccc(CN(C)C)c3)ccc2n1 [Compound 190] |
| > 40 | COC[C@H](Cc1ccc(O)cc1)NC(=O)c1cc(C(=O)O)c2cc(COc3ccccn3)ccc2n1 [Compound 207] |
| 1 to 40 | COC(=O)[C@H](Cc1ccc(O)cc1)NC(=O)c1cc(C(=O)O)c2cc(-c3ccccc3OC)ccc2n1 [Compound 151] |
| < 1 | COC(=O)[C@H](Cc1ccc(O)cc1)NC(=O)c1cc(C(=O)O)c2cc(-c3ccc(C)c([N+](=O)[O-])c3)ccc2n1 [Compound 49] |
| 1 to 40 | COC(=O)[C@H](Cc1ccc(O)cc1)NC(=O)c1cc(C(=O)O)c2cc(-c3cc(C(F)(F)F)cc(C(F)(F)F)c3)ccc2n1 [Compound 112] |
| > 40 | COC(=O)[C@H](Cc1cccnc1)NC(=O)c1cc(C(=O)O)c2cc(-c3cccc(C(F)(F)F)c3)ccc2n1 [Compound 164] |
| < 1 | COC(=O)[C@H](Cc1ccc(O)cc1)NC(=O)c1cc(C(=O)O)c2cc(CCc3ccccc3)ccc2n1 [Compound 60] |
| < 1 | CCCC(Cc1ccc(O)cc1)NC(=O)c1cc(C(=O)O)c2cc(-c3cccc(C(F)(F)F)c3)ccc2n1 (stereo not shown) [Compound 54] |
| < 1 | O=C(N[C@@H](Cc1ccc(O)cc1)c1ncc[nH]1)c1cc(C(=O)O)c2cc(-c3cccc(C(F)(F)F)c3)ccc2n1 [Compound 86] |
| < 1 | COC(=O)[C@H](Cc1ccc(O)cc1)NC(=O)c1cc(C(=O)O)c2cc(/C=C/c3ccc(F)cc3)ccc2n1 [Compound 6] |
| 1 to 40 | COC(=O)[C@H](Cc1ccc(O)cc1)NC(=O)c1cc(C(=O)O)c2cc(-c3cccnc3)ccc2n1 [Compound 130] |
| > 40 | COC[C@H](Cc1ccc(O)cc1)NC(=O)c1cc(C(=O)O)c2cc(CSc3ccccn3)ccc2n1 [Compound 210] |
| < 1 | COC[C@H](Cc1ccc(O)cc1)NC(=O)c1cc(C(=O)O)c2cc(-c3cccc(Cn4ccccc4=O)c3)ccc2n1 [Compound 26] |
| > 40 | COC[C@H](Cc1ccc(O)cc1)NC(=O)c1cc(C(=O)O)c2cc(-c3cccc(CN(C)CCO)c3)ccc2n1 [Compound 191] |
| < 1 | COC(=O)[C@H](Cc1ccc(O)cc1)NC(=O)c1cc(C(=O)O)c2cc(-c3ccc(C)s3)ccc2n1 [Compound 82] |
| < 1 | COC(=O)[C@H](Cc1ccc(O)cc1)NC(=O)c1cc(C(=O)O)c2cc(/C=C/C(C)(C)C)ccc2n1 [Compound 11] |
| 1 to 40 | COC[C@H](Cc1ccc(O)cc1)NC(=O)c1cc(C(=O)NS(C)(=O)=O)c2cc(-c3cccc(C(F)(F)F)c3)ccc2n1 [Compound 95] |
| > 40 | COC(=O)[C@H](Cc1ccc(O)cc1)NC(=O)c1cc(C(=O)O)c2cc(-c3cccc(NC(C)=O)c3)ccc2n1 [Compound 158] |
| 1 to 40 | COC(=O)[C@H](Cc1ccc(O)cc1)NC(=O)c1cc(C(=O)O)c2cc(-c3ccc4ccccc4c3)ccc2n1 [Compound 133] |
| < 1 | COC(=O)[C@H](Cc1ccc(O)cc1)NC(=O)c1cc(C(=O)O)c2cc(-c3ccc(F)c(Cl)c3)ccc2n1 [Compound 50] |
| < 1 | COC(=O)[C@H](Cc1ccc(O)cc1)NC(=O)c1cc(C(=O)O)c2cc(-c3cccc(-c4ccccc4)c3)ccc2n1 [Compound 42] |

| IC50 [µM] | Structure (SMILES) |
| --- | --- |
| 1 to 40 | COC(=O)[C@H](Cc1ccc(O)cc1)NC(=O)c1cc(C(=O)O)c2cc(-c3ccc(N(C)C)cc3)ccc2n1 [Compound 107] |
| > 40 | COC[C@H](Cc1ccc(O)cc1)NC(=O)c1cc(C(=O)O)c2cc(COc3ccccc3OC)ccc2n1 [Compound 201] |
| > 40 | COC(=O)[C@H](Cc1ccc(O)cc1)NC(=O)c1cc(C(=O)Nc2nnn[nH]2)c2cc(-c3cccs3)ccc2n1 [Compound 234] |
| > 40 | COC[C@H](Cc1ccc(O)cc1)NC(=O)c1cc(C(=O)O)c2cc(/C=C/c3cccnc3)ccc2n1 [Compound 188] |
| 1 to 40 | COC(=O)[C@H](Cc1ccc(O)cc1)NC(=O)c1cc(C(=O)O)c2cc(-c3cccc(F)c3)ccc2n1 [Compound 93] |
| > 40 | COC(=O)C(Cc1ccc(O)cc1)NC(=O)c1cc(C(=O)NC(C)(C)C(=O)O)c2cc(-c3cccs3)ccc2n1 (stereo not shown) [Compound 154] |
| > 40 | COC(=O)[C@H](Cc1ccc(O)cc1)NC(=O)c1cc(C(N)=O)c2cc(-c3cccs3)ccc2n1 [Compound 227] |
| < 1 | CN(C)C(=O)[C@H](Cc1ccc(O)cc1)NC(=O)c1cc(C(=O)O)c2cc(/C=C/c3ccc(Cl)cc3)ccc2n1 [Compound 34] |
| < 1 | COC(=O)[C@H](Cc1ccc(O)cc1)NC(=O)c1cc(C(=O)O)c2cc(CCC(C)(C)C)ccc2n1 [Compound 52] |
| > 40 | COC[C@H](Cc1ccc(O)cc1)NC(=O)c1cc(C(=O)OCCN(C)C)c2cc(/C=C/c3ccc(Cl)cc3)ccc2n1 [Compound 218] |
| 1 to 40 | COC[C@H](Cc1ccc(O)cc1)NC(=O)c1cc(NS(=O)(=O)C(C)(C)C)c2cc(-c3cccc(COc4cccnc4)c3)ccc2n1 [Compound 139] |
| > 40 | COC[C@H](Cc1ccc(O)cc1)NC(=O)c1cc(C(=O)O)c2cc(COc3ccccc3)ccc2n1 [Compound 180] |
| > 40 | COC[C@H](Cc1ccc(O)cc1)NC(=O)c1cc(C(=O)O)c2cc(COc3ccc(OC)cc3)ccc2n1 [Compound 200] |
| < 1 | COC(=O)[C@H](Cc1ccc(O)cc1)NC(=O)c1cc(C(=O)O)c2cc(CCc3ccc(F)cc3)ccc2n1 [Compound 31] |
| < 1 | COC(=O)[C@H](Cc1ccc(O)cc1)NC(=O)c1cc(C(=O)O)c2cc(-c3cccc(C)c3)ccc2n1 [Compound 48] |
| < 1 | COC(=O)[C@H](Cc1ccc(O)cc1)NC(=O)c1cc(C(=O)O)c2cc(-c3cccc(C(C)C)c3)ccc2n1 [Compound 30] |
| > 40 | COC(=O)[C@H](Cc1ccc(O)cc1)NC(=O)c1cc(C(=O)O)c2cc(-c3cncnc3)ccc2n1 [Compound 226] |
| 1 to 40 | CC(Cc1ccc(O)cc1)NC(=O)c1cc(C(=O)O)c2cc(-c3cccc(C(F)(F)F)c3)ccc2n1 (stereo not shown) [Compound 110] |
| 1 to 40 | COC[C@H](Cc1ccc(O)cc1)NC(=O)c1cc(NS(=O)(=O)C(C)(C)C)c2cc(-c3cccc(COc4cccc[n+]4[O-])c3)ccc2n1 [Compound 98] |
| > 40 | COC[C@H](Cc1ccc(O)cc1)NC(=O)c1cc(C(=O)O)c2cc(C#Cc3ccncc3)ccc2n1 [Compound 204] |
